According to patent publication US7982057B2, “Compound of stemphones and production thereof” (The Kitasato Institute, priority 2006, dated 2011):
Values after ≈ are worked out from the molar mass of the structure shown.

Columns and labels:
[1] = system: methicillin resistant Staphylococcus aureus K24; test: Enhancing effect for activity of imipenem by paper disk method; assay type: cell-based; settings: 10 μg disc, 37° C. for 20 hours; for inhibitory zone in the presence of imipenem: MHA medium with imipenem final concentration 10 μg/ml; for inhibitory zone, substance alone: MHA medium without imipenem
Description: Biological properties of compound of stemphones of the present invention are described in detail as follows. Method for evaluation of enhancing effect for activity of imipenem by paper disk method
Clinically isolated strain of methicillin resistant Staphylococcus aureus K24 was used as a test organism. Staphylococcus aureus was cultured in Mueller-Hinton broth (2.1% w/v) (DIFCO) at 37° C. for 20 hours, and was suspended corresponding to 0.5 Mc FARLAND (about 10^8 CFU/ml) in the same medium.
Smearing was performed by using sterilized cotton swab (Kawamoto Sangyo K.K., Japan) according to a method of National Committee for Laboratory Standard, NCCLS, U.S.A. Antibacterial activities against test organism on various media were expressed with a unit in mm of a diameter of inhibition zone after incubation with the paper disc (thin disc, […], ADVANTEC Inc.) method at 37° C. for 20 hours.

Jurkat cells = test: Cytotoxicity on Jurkat cells by MTT method; assay type: cell-based; settings: Homo sapiens, 48 hours
Description: Method for Evaluation of Cytotoxicity
Evaluation of cytotoxicity on Jurkat cells were performed by MTT method (Mosmaan, et al. J. Immunol. Methods, 65: 55-63, 1983). Cultured liquid of Jurkat cells were suspended in RPMI-1640 medium (Iwaki & Co., Ltd., Japan) to give suspension with 4×10^5 cells/ml, and the suspension 0.05 ml was seeded in each well of 96 well microplate (Corning Corp.). Subsequently, stemphone D substance, stemphone E substance, stemphone E1 substance, stemphone E2 substance, stemphone E3 substance or stemphone F substance (0.05 ml, 2% methanol/PRMI-1640 medium) was added and incubated at 37° C. for 48 hours in 5% carbon dioxide gas incubator. Then MTT reagent (SIGMA Inc.) dissolved in PBS to give concentration 5.5 mg/ml, 0.01 ml was added and reacted at 37° C. for 4 hours. After the reaction was performed, cell-lysing solution (40%, N-dimethylformamide (Kanto Chemical Co., Inc., Japan), 20% sodiumdodecyl sulfate (Wako Pure Chemical Industries, Ltd., Japan) 2% acetic acid (Kanto Chemical Co., Inc., Japan), 0.03% hydrochloric acid (Kanto Chemical Co., Inc., Japan) in purified water) 0.09 ml was added, and stirred at room temperature for 2 hours, then absorption at 550 nm was measured by using ELx 808 (BIO-TEK Instruments Inc.). As compared with stemphone C substance previously reported by the present inventor (ratio: 1.0), about 4-fold to 60-fold reduction of toxicity were confirmed.

Solubility in solvent = assay type: physicochemical

Compound	inhibitory zone in the presence of imipenem [1] [mm]	inhibitory zone, substance alone [1]	IC50 (Jurkat cells) [µg/mL]	Solubility in methanol and chloroform (Solubility in solvent)	Solubility in water (Solubility in solvent)
C/C=C(\C)C(OC(C)=O)C(C)C1=CC(=O)C2=C(OC3(C)CCC4OC(C(C)(C)O)CC(O)C4(C)C3C2)C1=O (stereo not drawn) [stemphone D substance]	25	not observed	1.8 (≈ 3.39 µM)	Soluble	insoluble
C/C=C(\C)C(OC(C)=O)C(C)c1cc(OC)c2c(c1O)OC1(C)CCC3OC(C(C)(C)O)CC(O)C3(C)C1C2O (stereo not drawn) [stemphone E1 substance]	15	not observed	26.2 (≈ 46.6 µM)	Soluble	insoluble
C/C=C(\C)C(OC(C)=O)C(C)c1cc(O)c2c(c1O)OC1(C)CCC3OC(C(C)(C)O)CC(O)C3(C)C1=C2 (stereo not drawn) [stemphone E2 substance]	22	not observed	4.4 (≈ 8.29 µM)	Soluble	insoluble
C/C=C(\C)C(OC(C)=O)C(C)C1=CC(=O)C2=C(OC3(C)CCC4OC(C(C)(C)O)CC(O)C4(C)C3=C2)C1=O (stereo not drawn) [stemphone E3 substance]	20	not observed	2.6 (≈ 4.92 µM)	Soluble	insoluble
C/C=C(\C)C(OC(C)=O)C(C)c1cc(O)c2c(c1O)OC1(C)CCC3OC(C(C)(C)O)CC(O)C3(C)C1C2O (stereo not drawn) [stemphone E substance]	22	not observed	3.6 (≈ 6.56 µM)	Soluble	insoluble
C/C=C(\C)C(OC(C)=O)C(C)C1=CC(=O)C2=C(OC3(C)CCC4OC(C(C)(C)O)CC(O)C4(C)C3C2O)C1(O)CC(C)=O (stereo not drawn) [stemphone F substance]	20	not observed	2.7 (≈ 4.46 µM)	Soluble	insoluble
